This test has as its system L1210 leukemia ip in BDF1 mice, survival T/C. In words: NCI In Vivo Anticancer Drug Screen. Data for tumor model L1210 Leukemia (intraperitoneal) in B6D2F1 (BDF1) mice. The note with it: higher = longer survival. In outline: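 Read-out is survival time, reported as the treated-group measurement over the vehicle-control measurement.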
Where [1] appears, read: endpoint: mean survival time, dose: 100.0 mg/kg/injection, schedule: Q01DX001 (ip), vehicle: saline.
Where [2] appears, read: endpoint: mean survival time, dose: 200.0 mg/kg/injection, schedule: Q01DX001 (ip), vehicle: saline.
The mark [3] stands for this setting: endpoint: mean survival time, dose: 100.0 mg/kg/injection, schedule: Q04DX003 (ip), vehicle: saline with Tween-80.
Setting [4] is: endpoint: mean survival time, dose: 200.0 mg/kg/injection, schedule: Q04DX003 (ip), vehicle: saline with Tween-80.
[5] abbreviates: endpoint: mean survival time, dose: 400.0 mg/kg/injection, schedule: Q04DX003 (ip), vehicle: saline with Tween-80.

Where “and” joins values, the source holds several entries; their conditions need not be identical. Identical values can stand only once. Inconclusive results and toxic doses are left out.

Turning to `S=P(N1CCOCC1)(N1CC1)N1CC1`, the T/C is, setting by setting: (endpoint: mean survival time, dose: 2.4 mg/kg/injection, schedule: Q01DX001 (ip), vehicle: saline) 106 % of control; (endpoint: mean survival time, dose: 2.4 mg/kg/injection, schedule: Q07DX003 (ip), vehicle: saline) 104 % of control; (endpoint: mean survival time, dose: 2.5 mg/kg/injection, schedule: Q01DX Z (ip), vehicle: carboxymethylcellulose (CMC)) 109 % of control; (endpoint: mean survival time, dose: 2.5 mg/kg/injection, schedule: Q#A X Z (ip), vehicle: saline) 102 % of control; (endpoint: mean survival time, dose: 4.3 mg/kg/injection, schedule: Q01DX001 (ip), vehicle: saline) 117 % of control; (endpoint: mean survival time, dose: 4.3 mg/kg/injection, schedule: Q07DX003 (ip), vehicle: saline) 113 % of control. Further, the T/C is 107 % of control (endpoint: mean survival time, dose: 5.0 mg/kg/injection, schedule: Q01DX006 (iv), vehicle: saline); 101 % of control and 104 % of control (endpoint: mean survival time, dose: 5.0 mg/kg/injection, schedule: Q01DX009 (ip), vehicle: saline); 97 % of control and 103 % of control (endpoint: mean survival time, dose: 5.0 mg/kg/injection, schedule: Q01DX010 (ip), vehicle: saline); 104 % of control (endpoint: mean survival time, dose: 5.0 mg/kg/injection, schedule: Q01DX Z (im), vehicle: saline); 102 % of control (endpoint: mean survival time, dose: 5.0 mg/kg/injection, schedule: Q01DX Z (ip), vehicle: carboxymethylcellulose (CMC)); 110 % of control (endpoint: mean survival time, dose: 5.0 mg/kg/injection, schedule: Q01DX Z (ip), vehicle: saline). Moreover, the T/C (endpoint: mean survival time, dose: 5.0 mg/kg/injection, schedule: Q01DX Z (sc), vehicle: saline) is 107 % of control; the T/C (endpoint: mean survival time, dose: 5.0 mg/kg/injection, schedule: Q#A X Z (ip), vehicle: saline) was 106 % of control; the T/C (endpoint: mean survival time, dose: 8.7 mg/kg/injection, schedule: Q01DX001 (ip), vehicle: saline) is 103 % of control; the T/C (endpoint: mean survival time, dose: 8.7 mg/kg/injection, schedule: Q07DX003 (ip), vehicle: saline) was 115 % of control; the T/C (endpoint: mean survival time, dose: 10.0 mg/kg/injection, schedule: Q01DX006 (iv), vehicle: saline) is 109 % of control; the T/C (endpoint: mean survival time, dose: 10.0 mg/kg/injection, schedule: Q01DX009 (ip), vehicle: saline) is 101 % of control and 104 % of control. Moreover, the T/C is 114 % of control and 124 % of control (endpoint: mean survival time, dose: 10.0 mg/kg/injection, schedule: Q01DX010 (ip), vehicle: saline); 114 % of control (endpoint: mean survival time, dose: 10.0 mg/kg/injection, schedule: Q01DX Z (im), vehicle: saline); 115 % of control (endpoint: mean survival time, dose: 10.0 mg/kg/injection, schedule: Q01DX Z (ip), vehicle: carboxymethylcellulose (CMC)); 116 % of control (endpoint: mean survival time, dose: 10.0 mg/kg/injection, schedule: Q01DX Z (ip), vehicle: saline); 107 % of control (endpoint: mean survival time, dose: 10.0 mg/kg/injection, schedule: Q01DX Z (sc), vehicle: saline); 118 % of control (endpoint: mean survival time, dose: 15.0 mg/kg/injection, schedule: Q03DX006 (ip), vehicle: saline). Also, the T/C was 106 % of control (endpoint: mean survival time, dose: 17.5 mg/kg/injection, schedule: Q01DX001 (ip), vehicle: saline); 118 % of control (endpoint: mean survival time, dose: 18.0 mg/kg/injection, schedule: Q01DX003 (ip), vehicle: saline); 108 % of control and 120 % of control (endpoint: mean survival time, dose: 20.0 mg/kg/injection, schedule: Q01DX009 (ip), vehicle: saline); 118 % of control and 119 % of control (endpoint: mean survival time, dose: 20.0 mg/kg/injection, schedule: Q01DX010 (ip), vehicle: saline); 168 % of control (endpoint: mean survival time, dose: 20.0 mg/kg/injection, schedule: Q01DX Z (im), vehicle: saline); 123 % of control (endpoint: mean survival time, dose: 20.0 mg/kg/injection, schedule: Q01DX Z (ip), vehicle: carboxymethylcellulose (CMC)). In addition, the T/C is 160 % of control (endpoint: mean survival time, dose: 20.0 mg/kg/injection, schedule: Q01DX Z (ip), vehicle: saline); 122 % of control (endpoint: mean survival time, dose: 20.0 mg/kg/injection, schedule: Q01DX Z (oral), vehicle: saline); 166 % of control (endpoint: mean survival time, dose: 26.0 mg/kg/injection, schedule: Q01DX003 (ip), vehicle: saline); 160 % of control (endpoint: mean survival time, dose: 30.0 mg/kg/injection, schedule: Q03DX006 (ip), vehicle: saline); 120 % of control (endpoint: mean survival time, dose: 35.0 mg/kg/injection, schedule: Q01DX001 (ip), vehicle: saline); 150 % of control and 173 % of control (endpoint: mean survival time, dose: 40.0 mg/kg/injection, schedule: Q01DX003 (ip), vehicle: saline). Moreover, the T/C was 101 % of control and 104 % of control (endpoint: mean survival time, dose: 40.0 mg/kg/injection, schedule: Q01DX009 (ip), vehicle: saline); 104 % of control (endpoint: mean survival time, dose: 40.0 mg/kg/injection, schedule: Q01DX010 (ip), vehicle: saline); 110 % of control (endpoint: mean survival time, dose: 40.0 mg/kg/injection, schedule: Q01DX Z (im), vehicle: saline); 89 % of control (endpoint: mean survival time, dose: 40.0 mg/kg/injection, schedule: Q01DX Z (ip), vehicle: saline); 92 % of control (endpoint: mean survival time, dose: 40.0 mg/kg/injection, schedule: Q#A X Z (ip), vehicle: saline); 156 % of control and 178 % of control (endpoint: mean survival time, dose: 60.0 mg/kg/injection, schedule: Q01DX003 (ip), vehicle: saline). Also, the T/C by setting is: (endpoint: mean survival time, dose: 70.0 mg/kg/injection, schedule: Q07DX003 (ip), vehicle: saline) 178 % of control; (endpoint: mean survival time, dose: 80.0 mg/kg/injection, schedule: Q01DX006 (iv), vehicle: saline) 164 % of control; (endpoint: mean survival time, dose: 80.0 mg/kg/injection, schedule: Q01DX Z (oral), vehicle: saline) 100 % of control; (endpoint: mean survival time, dose: 140.0 mg/kg/injection, schedule: Q01DX001 (ip), vehicle: saline) 107 % of control; (endpoint: mean survival time, dose: 280.0 mg/kg/injection, schedule: Q01DX001 (ip), vehicle: saline) 102 % of control; (endpoint: median survival time, dose: 5.0 mg/kg/injection, schedule: Q01DX009 (ip), vehicle: saline) 100 % of control and 111 % of control. Further, the T/C was 106 % of control and 122 % of control (endpoint: median survival time, dose: 10.0 mg/kg/injection, schedule: Q01DX009 (ip), vehicle: saline); 166 % of control and 168 % of control (endpoint: median survival time, dose: 20.0 mg/kg/injection, schedule: Q01DX009 (ip), vehicle: saline); 122 % of control (endpoint: median survival time, dose: 40.0 mg/kg/injection, schedule: Q01DX009 (ip), vehicle: saline).

Turning to `Cc1nonc1C(=O)N(C)C`, the T/C is, setting by setting: (endpoint: mean survival time, dose: 25.0 mg/kg/injection, schedule: Q04DX002 (ip), vehicle: saline) 98 % of control; (endpoint: mean survival time, dose: 50.0 mg/kg/injection, schedule: Q04DX002 (ip), vehicle: saline) 102 % of control; (endpoint: mean survival time, dose: 100.0 mg/kg/injection, schedule: Q04DX002 (ip), vehicle: saline) 102 % of control.

In the case of `COc1ccc(CC[n+]2cccc(C#N)c2)cc1OC`, the T/C is, setting by setting: (endpoint: mean survival time, dose: 75.0 mg/kg/injection, schedule: Q01DX001 (ip), vehicle: carboxymethylcellulose (CMC)) 105 % of control; (endpoint: mean survival time, dose: 150.0 mg/kg/injection, schedule: Q01DX001 (ip), vehicle: carboxymethylcellulose (CMC)) 100 % of control.

Take `OC(C[n+]1ccccc1)c1c[nH]c2ccccc12` (stereo unspecified): the T/C (endpoint: mean survival time, dose: 75.0 mg/kg/injection, schedule: Q01DX001 (ip), vehicle: other) was 107 % of control.

Regarding `CC(=O)Nc1ccc(SC(Sc2ccc(NC(C)=O)cc2)c2ccccc2)cc1`, the T/C by setting is: under setting [1], 92 % of control; under setting [2], 92 % of control; (endpoint: mean survival time, dose: 400.0 mg/kg/injection, schedule: Q01DX001 (ip), vehicle: saline) 92 % of control.

`CC(C(=O)O)N1C(=O)C2C3C=CC(C3)C2C1=O` (stereo unspecified): the T/C by setting is: under setting [3], 94 % of control; under setting [4], 102 % of control; under setting [5], 97 % of control.

Regarding `Ic1cccc(Oc2ccccc2)c1`, the T/C (endpoint: mean survival time, dose: 100.0 mg/kg/injection, schedule: Q01DX009 (ip), vehicle: saline with Tween-80) is 114 % of control and the T/C (endpoint: mean survival time, dose: 200.0 mg/kg/injection, schedule: Q01DX009 (ip), vehicle: saline with Tween-80) is 91 % of control.

`NC(CS(=O)c1ccc([N+](=O)[O-])cc1Cl)C(=O)O` (stereo unspecified): the T/C reads like this: under setting [3], 103 % of control; under setting [4], 95 % of control; under setting [5], 101 % of control.

On to `CCCCNc1nnnn1CCCC`, for which the T/C is 98 % of control (endpoint: mean survival time, dose: 100.0 mg/kg/injection, schedule: Q04DX003 (ip), vehicle: acetone) and 96 % of control (endpoint: mean survival time, dose: 200.0 mg/kg/injection, schedule: Q04DX003 (ip), vehicle: acetone).

In the case of `CCN1CCCCCCCCCC(=N/O)/C(=N\O)C1`, the T/C reads like this: (endpoint: mean survival time, dose: 50.0 mg/kg/injection, schedule: Q01DX001 (ip), vehicle: saline) 101 % of control; under setting [1], 103 % of control; under setting [2], 95 % of control.

In the case of `O=C(Nc1ccccc1)Oc1ccc(OCc2ccccc2)cc1`, the T/C reads like this: (endpoint: mean survival time, dose: 12.5 mg/kg/injection, schedule: Q04DX003 (ip), vehicle: saline with Tween-80) 95 % of control; (endpoint: mean survival time, dose: 25.0 mg/kg/injection, schedule: Q04DX003 (ip), vehicle: saline with Tween-80) 93 % of control; (endpoint: mean survival time, dose: 50.0 mg/kg/injection, schedule: Q04DX003 (ip), vehicle: saline with Tween-80) 93 % of control.

(Values after PubChem BioAssay AID248 (DTP/NCI, 2004).)
